pIC50: −log10 of the molar value.
Assays:
human sphingosine kinase = assay: Screening assay for inhibitors of SK; format: biochemical; conditions: library screen
Source text: An assay for screening for inhibitors of SK has been established (French et al., Cancer Res 63: 5962 (2003)). […] Representative active compounds from four chemotypes of SK inhibitors, designated herein as Compounds I-IV, are shown in FIG. 1.

[1] = tested on: endogenous SK in rat IEC6 cells; assay: Cell-based [3H]sphingosine to [3H]S1P assay of endogenous SK activity, rat IEC6 cells; conditions: FIG. 2A
Method: (§1) FIG. 2. […] Values represent the mean±sd SK activity in triplicate samples in a typical experiment. A cell-based assay in which the phosphorylation of exogenously added [^3H]sphingosine to [^3H]S1P by endogenous SK can be quantified (French et al., Cancer Res 63: 5962 (2003)) was used to evaluate the effects of test compounds on the activity of SK in intact cells. In this assay, cells are incubated with [^3H]sphingosine for an appropriate period of time, and then [^3H]sphingosine and [^3H]S1P (formed by endogenous SK activity) are separated by extraction and levels of both species are determined by scintillation counting. […] For example, human umbilical vein endothelial cells (HUVECs) are commonly used as a model of human vasculature. Additionally, rat IEC6 cells are commonly used as a model of intestinal epithelial cells.

[2] = tested on: endogenous SK in human umbilical vein endothelial cells (HUVECs); assay: Cell-based [3H]sphingosine to [3H]S1P assay of endogenous SK activity, HUVECs; conditions: for cellular levels of [3H]S1P: 24 hours treatment, FIG. 3
Method: as §1, with “typical experiment. FIG. 3. […] HUVECs were treated with the indicated concentrations of Compound I, II or V for 24 hours. SK activity was measured by adding [^3H]sphingosine and determining its conversion to [3H]S1P. Values represent the mean±SD of duplicate samples. A cell-based” for “typical experiment. A cell-based”, “epithelial cells. […] Specifically, HUVECs, human chondrocytes (HC), and human synovial cells from a patient with RA (HFLS-RA) were examined.” for “epithelial cells.”

NFκB = assay: TNFα-induced NFκB luciferase reporter assay in fibroblasts; format: cell-based; conditions: TNFα for 6 hours, FIG. 4
Method: FIG. 4. Inhibition of TNFα-induced activation of NFκB by ABC294640. Fibroblasts transfected with a TNFα-responsive promoter linked to luciferase were treated with the indicated concentrations of ABC294640 and then treated with TNFα for 6 hours. The amount of luciferase expressed by the cells was then measured by luminescence. Values represent the mean±sd luciferase activity in triplicate samples in a typical experiment.

[3] = tested on: ICAM-1 and VCAM-1 in human endothelial cells; assay: TNFα-induced adhesion molecule expression (Western analysis); format: cell-based; conditions: TNFα 100 ng/mL, 6 hours
Method: Like endothelial cells in the body, HUVECs will proliferate in response to several growth factors, and will respond to inflammatory cytokines such as TNFα and IL-1β. Western analyses were conducted with human endothelial cells to evaluate the effects of the SK inhibitors on signaling proteins known to be regulated by TNFα. […] Cell lysates from treated cells were assayed for the adhesion molecules ICAM-1 and VCAM-1. TNFα caused marked increases in the expression levels of adhesion proteins involved in leukocyte recruitment, including ICAM-1 and VCAM-1.

[4] = tested on: Cox-2 activity (PGE2 production) in IEC6 rat intestinal epithelial cells; assay: TNFα-induced Cox-2 activity (PGE2 ELISA), IEC6 cells; format: cell-based; conditions: 10 μg/mL compound, 100 ng TNFα/mL, 18 hours
[5] = tested on: Cox-2 activity (PGE2 production) in human endothelial cells; assay: TNFα-induced Cox-2 activity (PGE2 ELISA), human endothelial cells; format: cell-based; conditions: 10 μg/mL compound, 100 ng TNFα/mL, 18 hours
[6] = tested on: male C57BL/6 mice, DSS-colitis; assay: Acute DSS-colitis model of IBD; format: in vivo; conditions: 2% DSS, 50 mg/kg oral daily; for Disease Activity Index (DAI): Days 4-6
[7] = tested on: mice, chronic DSS-colitis; assay: Chronic (35-day) DSS-colitis model of IBD; format: in vivo; conditions: for colon length: Day 35, 50 mg/kg oral daily for 7 days, DSS alone 4.9±0.2, water 7.8±0.3; for serum level of IL-6: at time of sacrifice; for increase in DAI: third DSS exposure, 50 mg/kg oral daily Day 28-35, P<0.001 on Day 35; for colonic levels of pro-inflammatory cytokines TNFα, IL-1β, IFN-γ and IL-6: treated during the final DSS cycle, 50 mg/kg oral
[8] = tested on: female DBA/1 mice, Collagen-Induced Arthritis; assay: Collagen-Induced Arthritis (CIA) model; format: in vivo; conditions: Day 12; ABC294640 100 mg/kg, ABC747080 50 mg/kg oral
[9] = tested on: male Lewis rats, adjuvant-induced arthritis; assay: Adjuvant-induced arthritis model; format: in vivo; conditions: 5, 35, 100 mg/kg oral daily, 10 days
Method: FIG. 18. Effects of ABC294640 on disease progression in the adjuvant-induced arthritis model in rats. Male Lewis rats were injected subcutaneously with Mycobacterium butyricum, and symptoms of immune reactivity were present after 2 weeks. Responsive rats were randomized into treatment groups (n=8 per group), and received oral daily doses of: solvent alone (0.375% Tween-80); 100 mg/kg ABC294640; 35 mg/kg ABC294640; or 5 mg/kg ABC294640, or intraperitoneal injections of indomethacin (5 mg/kg) every other day. The severity of disease in each animal was quantified by measurement of the hind paw thickness. Panel A. Time course of hind paw arthritic response. Panel B. Final day (Day 10) hind paw thickness measurements. Panel C. Change in paw thickness of respective group versus non-arthritic rats (naive) at Day 10. *, p<0.05; ***, p<0.001 versus solvent alone group.
Adjuvant-induced arthritis is another widely used assay that recapitulates many features of human rheumatoid arthritis, and so is useful in the evaluation of new drug candidates. Age- and weight-matched male Lewis rats (150-170 g) were injected subcutaneously in the tail with 1 mg of Mycobacterium butyricum (Difco, killed dried) suspended in 0.1 ml of light mineral oil. Symptoms of immune reactivity were present after 2 weeks. […] The severity of disease in each animal was quantified by measurement of the hind paw thickness. […]

[10] = tested on: female Swiss-Webster mice; conditions: mouse, in vivo
Method: The compounds are soluble to at least 15 mg/ml in 50% dimethylsulfoxide: 50% phosphate-buffered saline (DMSO:PBS) for intraperitoneal (IP) administration or Polyethylene glycol-400 (PEG400) for oral dosing.

physchem = conditions: aqueous with cosolvent or surfactant or cyclodextrin
[11] = tested on: endogenous SK in human chondrocytes (HC); assay: Cell-based S1P formation assay, human chondrocytes; conditions: HCs; read-out: drug concentration that decreases S1P formation by 50%
Method: (§2) A cell-based assay in which the phosphorylation of exogenously added [^3H]sphingosine to [^3H]S1P by endogenous SK can be quantified (French et al., Cancer Res 63: 5962 (2003)) was used to evaluate the effects of test compounds on the activity of SK in intact cells. In this assay, cells are incubated with [^3H]sphingosine for an appropriate period of time, and then [^3H]sphingosine and [^3H]S1P (formed by endogenous SK activity) are separated by extraction and levels of both species are determined by scintillation counting. We have used a number of cell lines in this assay to confirm that the SK inhibitors are active in multiple intact cell systems. For example, human umbilical vein endothelial cells (HUVECs) are commonly used as a model of human vasculature. Additionally, rat IEC6 cells are commonly used as a model of intestinal epithelial cells.
(§3) Specifically, HUVECs, human chondrocytes (HC), and human synovial cells from a patient with RA (HFLS-RA) were examined.

[12] = tested on: endogenous SK in human synovial cells from a patient with RA (HFLS-RA); assay: Cell-based S1P formation assay, HFLS-RA cells; conditions: read-out: drug concentration that decreases S1P formation by 50%
Method: as §2, §3

[13] = tested on: HL-60 (human promyelocytic leukemia) cells; assay: TNFα-induced HL-60 cell proliferation; format: cell-based; conditions: 25 ng TNFα/ml, 72 hours
Method: FIG. 6. Inhibition of TNFα-induced HL-60 cell proliferation by SK inhibitors. HL-60 cells were serum-starved for 18 hours and then left untreated (▴) or treated with 25 ng of TNFα/ml (▾) in the presence of the indicated concentrations of Compound I, II or V. After 72 hours, the number of cells in each treatment group was quantified.
As discussed above, aberrant activation of leukocytes is a central feature of many inflammatory diseases. Because of the roles of S1P in promoting leukocyte proliferation, we examined the effects of several SK inhibitors on the proliferation of HL-60 (human promyelocytic leukemia) cells. […] Compound I was particularly effective, completely blocking the effects of TNFα at concentrations of 0.2 μM or greater.

For `O=C(NCc1ccncc1)C12CC3CC(C1)CC(c1ccc(Cl)cc1)(C3)C2` [ABC294640], the “inhibition of SK” value (human sphingosine kinase) was “inhibit SK”, the “SK activity ([3H]S1P formation)” value [1] was “dose-dependent suppression of SK activity” and the “SK activity ([3H]S1P formation)” value ([2]; human endothelial cells, FIG. 2B) was “dose-dependent suppression of SK activity”. The “activation of NFκB by TNFα (luciferase)” value (NFκB) was “dose-dependently suppressed”, the “TNFα induction of ICAM-1 and VCAM-1” value ([3]; 25 μM compound) was “completely abrogated” and the “TNFα-induced expression of ICAM-1 and VCAM-1” value [3] was “inhibited”. For the same compound, the “induction of Cox-2 activity by TNFα (PGE2 production)” value [4] was “strongly suppressed”, the “induction of Cox-2 activity by TNFα (PGE2 production)” value [5] was “strongly suppressed” and the colon length ([6]; Day 6) was “colons of intermediate length”. For the same compound, the “colonic S1P levels (LC-MS/MS)” value ([6]; Day 6) was “markedly lower levels of colonic S1P”, the “histological examination of colon sections” value ([6]; Day 6) was “no or mild crypt damage, no or low levels of inflammatory cell infiltration and no edema in the submucosa” and the “increase in colonic myeloperoxidase (MPO) activity” value ([6]; Day 6) was “markedly attenuated”. The “Disease Activity Index (DAI)” value [6] was “reduced the intensity of the IBD manifestations”, the “SK expression in the colon (immunohistochemistry)” value ([7]; DSS treated mice) was “clearly reduced” and the colon length [7] was 6.2±0.2 cm. The “serum level of IL-6” value [7] was “reduced the serum level of IL-6”, the “colonic S1P levels” value ([7]; oral 50 mg/kg daily, 7 days prior to sacrifice) was “significant reductions of S1P levels” and the “increase in DAI” value [7] was “significantly suppressed the increase in DAI”. The “colonic levels of pro-inflammatory cytokines TNFα, IL-1β, IFN-γ and IL-6” value [7] was “reduced levels of the pro-inflammatory cytokines”, the “histologic damage of tibiotarsal joints” value [8] was “significantly reduced histologic damage” and the “arthritic response (paw thickness)” value [9] was “inhibited this arthritic response in a dose-dependent manner”. The “dose with no immediate or delayed toxicity” value ([10]; ip) was “at least 50 mg/kg”, the “dose without noticeable toxicity” value ([10]; po) was “at least 100 mg/kg” and the solubility (physchem) was no less than 15 mg/mL.
In the case of `Oc1ccc(Nc2nc(-c3ccc(Cl)cc3)cs2)cc1` [Compound II], the “cellular levels of [3H]S1P” value ([2]; HUVECs) was “dose-dependent reductions in the cellular levels of S1P”, the pIC50 ([2]; HUVECs, read-out: drug concentration that decreases S1P formation by 50%) was 6.70 and the pIC50 [11] was 6.44. For the same compound, the pIC50 [12] was 6.72 and the “HL-60 cell proliferation of TNFα-stimulated cells” value [13] was “dose-dependent reductions in HL-60 cell proliferation”.
In the case of `O=C(O)c1cc(/N=N/c2ccc(O)c(C(=O)O)c2)ccc1O` [Dipentum, reference compound], the “colon Histology Score” value ([6]; Day 6) was “consistently lower than the DSS-alone animals”, the colon length ([6]; Day 6) was “colons of intermediate length” and the “elevations of colonic pro-inflammatory proteins IFN-γ, IL-1β, IL-6 and TNFα” value ([6]; Day 6) was “attenuated”. For the same compound, the “increase in colonic myeloperoxidase (MPO) activity” value ([6]; Day 6) was “markedly attenuated”, the “Disease Activity Index (DAI)” value [6] was “reduced the intensity of the IBD manifestations” and the colon length [7] was 6.1±0.2 cm. The “serum level of IL-6” value [7] was “reduced the serum level of IL-6”, the “increase in DAI” value [7] was “significantly suppressed the increase in DAI” and the “colonic levels of pro-inflammatory cytokines TNFα, IL-1β, IFN-γ and IL-6” value [7] was “cytokine profiles equivalent to the DSS-alone group”.
For `O=C1C(=Cc2ccc(O)c(O)c2)Oc2ccccc21` [V], the “cellular levels of [3H]S1P” value ([2]; HUVECs) was “dose-dependent reductions in the cellular levels of S1P” and the “HL-60 cell proliferation of TNFα-stimulated cells” value [13] was “dose-dependent reductions in HL-60 cell proliferation”.

Source: US8324237B2, “Methods for the treatment and prevention of inflammatory diseases” (priority 2005, dated 2012)
